# Values quoted from earlier work, collected in patent US20100113603A1, “COMBINATION THERAPIES FOR THE TREATMENT OF OBESITY” (priority 2008, published 2010).
# Conditions: literature studies of each medication
row,SMILES,weight loss of body weight for drug compared with placebo
1,CCN[C@@H](C)Cc1cccc(C(F)(F)F)c1 [dexfenfluramine],about 5%
2,CC(C)(N)Cc1ccccc1 [phentermine],about 5%
3,CC(C)CC(N(C)C)C1(c2ccc(Cl)cc2)CCC1 (stereo not shown) [sibutramine],about 5%
4,CCCCCCCCCCC[C@@H](C[C@@H]1OC(=O)[C@H]1CCCCCC)OC(=O)[C@H](CC(C)C)NC=O [orlistat],about 5%
